How the values were obtained:
[1] = target: T1, Tie2 (Homo sapiens, UniProt Q02763); parameters: expressed in transfected cells; host or cells: CHO (CHO Tie2/DHFR); details: more potent against other kinases than against Tie2; cited from earlier work
Target sequence in this assay (Q02763 23-1124, species assumed): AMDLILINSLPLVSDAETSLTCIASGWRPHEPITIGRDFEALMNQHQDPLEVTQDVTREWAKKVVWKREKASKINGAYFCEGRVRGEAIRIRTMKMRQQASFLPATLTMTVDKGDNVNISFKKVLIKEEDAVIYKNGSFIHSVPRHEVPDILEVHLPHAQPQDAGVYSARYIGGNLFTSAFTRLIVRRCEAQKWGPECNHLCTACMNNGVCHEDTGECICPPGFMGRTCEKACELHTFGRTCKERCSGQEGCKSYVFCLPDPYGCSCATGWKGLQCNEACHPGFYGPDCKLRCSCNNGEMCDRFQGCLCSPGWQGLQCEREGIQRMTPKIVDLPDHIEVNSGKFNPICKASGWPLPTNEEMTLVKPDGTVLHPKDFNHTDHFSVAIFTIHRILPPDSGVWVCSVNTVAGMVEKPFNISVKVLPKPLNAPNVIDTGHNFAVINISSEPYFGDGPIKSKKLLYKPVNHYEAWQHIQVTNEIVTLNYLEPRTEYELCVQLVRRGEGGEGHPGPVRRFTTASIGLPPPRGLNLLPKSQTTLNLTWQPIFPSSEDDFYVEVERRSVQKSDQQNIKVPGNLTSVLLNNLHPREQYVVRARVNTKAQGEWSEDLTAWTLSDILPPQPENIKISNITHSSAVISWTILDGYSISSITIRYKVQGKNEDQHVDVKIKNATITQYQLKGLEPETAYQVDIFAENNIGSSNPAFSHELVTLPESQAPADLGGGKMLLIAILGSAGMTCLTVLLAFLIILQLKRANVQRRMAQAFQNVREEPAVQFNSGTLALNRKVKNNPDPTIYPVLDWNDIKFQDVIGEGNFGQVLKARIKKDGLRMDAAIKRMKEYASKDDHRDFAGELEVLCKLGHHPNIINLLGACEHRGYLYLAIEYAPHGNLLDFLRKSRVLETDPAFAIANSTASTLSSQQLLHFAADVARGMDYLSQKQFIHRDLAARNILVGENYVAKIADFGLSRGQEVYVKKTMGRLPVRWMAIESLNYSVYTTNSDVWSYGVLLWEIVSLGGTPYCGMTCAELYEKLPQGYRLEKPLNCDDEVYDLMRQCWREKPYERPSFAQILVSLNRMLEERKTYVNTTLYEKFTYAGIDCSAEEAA

[2] = target: T1, Tie2; parameters: expressed in transfected cells; host or cells: CHO (CHO Tie2/DHFR); details: Albert et al. Mol. Cancer. Ther. 2006, 5, 995; cited from earlier work
Target sequence in this assay (Q02763 23-1124, species assumed): as above

[3] = target: T1, Tie2; experiment: Tie-2-Kinase HTRF-Assay without kinase preactivation; assay type: biochemical; parameters: fusion protein of GST and the intracellular domains of Tie-2; GST; made in house; host or cells: insect cells (Hi-5); details: GST-Tie-2 intracellular domains, 10 μM ATP
Text: Tie2-inhibitory activity of compounds of the present invention was quantified employing two Tie2 HTRF assay as described in the following paragraphs.
A recombinant fusion protein of GST and the intracellular domains of Tie-2, expressed in insect cells (Hi-5) and purified by Glutathion-Sepharose affinity chromatography was used as kinase. Alternatively, commercially available GST-Tie2-fusion protein (Upstate Biotechnology, Dundee, Scotland) can be used As substrate for the kinase reaction the biotinylated peptide biotin-Ahx-EPKDDAYPLYSDFG (C-terminus in amid form) was used which can be purchased e.g. from the company Biosynthan GmbH (Berlin-Buch, Germany). Detection of phosphorylated product is achieved specifically by a trimeric detection complex consisting of the phosphorylated substrate, streptavidin-XLent (SA-XLent) which binds to biotin, and Europium Cryptate-labeled anti-phosphotyrosine antibody PT66 which binds to phosphorylated tyrosine.
Tie-2 (3.5 ng/measurement point) was incubated for 60 min at 22° C. in the presence of 10 μM adenosine-tri-phosphate (ATP) and 1 μM substrate peptide (biotin-Ahx-EPKDDAYPLYSDFG-NH2) with different concentrations of test compounds (0 μM and concentrations in the range 0.001-20 μM) in 5 μl assay buffer [50 mM Hepes/NaOH pH 7, 10 mM MgCl2, 0.5 mM MnCl2, 1.0 mM dithiothreitol, 0.01% NP40, protease inhibitor mixture (“Complete w/o EDTA” from Roche, 1 tablet per 2.5 ml), 1% (v/v) dimethylsulfoxide]. The reaction was stopped by the addition of 5 μl of an aqueous buffer (25 mM Hepes/NaOH pH 7.5, 0.28% (w/v) bovine serum albumin) containing EDTA (90 mM) and the HTRF (Homogeneous Time Resolved Fluorescence) detection reagents streptavidine-XLent (0.2 μM, from Cis Biointernational, Marcoule, France) and PT66-Eu-Chelate (0.3 ng/μl; a europium-chelate labelled anti-phospho-tyrosine antibody from Perkin Elmer).
The resulting mixture was incubated 1 h at 22° C. to allow the binding of the biotinylated phosphorylated peptide to the streptavidine-XLent and the PT66-Eu-Chelate. Subsequently the amount of phosphorylated substrate peptide was evaluated by measurement of the resonance energy transfer from the PT66-Eu-Chelate to the streptavidine-XLent. Therefore, the fluorescence emissions at 620 nm and 665 nm after excitation at 350 nm was measured in a HTRF reader, e.g. a Rubystar (BMG Labtechnologies, Offenburg, Germany) or a Viewlux (Perkin-Elmer). The ratio of the emissions at 665 nm and at […] was taken as the measure for the amount of phosphorylated substrate peptide. The data were normalised (enzyme reaction without inhibitor=0% inhibition, all other assay components but no enzyme=100% inhibition) and IC50 values were calculated by a 4 parameter fit using an inhouse software.
Target sequence in this assay (Q02763 770-1124 limits assumed, species assumed): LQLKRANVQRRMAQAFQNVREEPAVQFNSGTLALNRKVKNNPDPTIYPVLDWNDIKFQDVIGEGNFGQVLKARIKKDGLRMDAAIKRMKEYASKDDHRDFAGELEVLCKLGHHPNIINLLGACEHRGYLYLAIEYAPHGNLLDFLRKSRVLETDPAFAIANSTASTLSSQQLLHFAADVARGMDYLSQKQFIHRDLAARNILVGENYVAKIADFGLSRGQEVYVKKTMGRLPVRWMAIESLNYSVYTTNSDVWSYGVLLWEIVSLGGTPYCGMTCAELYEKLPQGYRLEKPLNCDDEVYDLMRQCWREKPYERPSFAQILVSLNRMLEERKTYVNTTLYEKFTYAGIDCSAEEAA

[4] = target: T1, Tie2; experiment: Tie2 ELISA assay (cellular Tie2 autophosphorylation); assay type: cell-based; parameters: expressed in transfected cells; host or cells: CHO (CHO Tie2/DHFR); details: CHO cells stably transfected with Tie2, stimulated by angiopoietin-2; Tie2 autophosphorylation by sandwich-ELISA; read-out: Tie 2 activity (assay 1)
Method: Cellular activity of compounds of the present invention as inhibitors of Tie2 kinase activity was measured employing a Tie2 ELISA assay as described in the following paragraphs. Herein CHO cell-cultures, which are stably transfected by known techniques with Tie2 using DHFR deficiency as selection marker, are stimulated by angiopoietin-2. The specific autophosphorylation of Tie2 receptors is quantified with a sandwich-ELISA using anti-Tie2 antibodies for catch and anti-phosphotyrosine antibodies coupled to HRP for detection.
• 96 well tissue culture plate, sterile, Greiner • 96 well FluoroNunc plate MaxiSorp Surface C, Nunc • 96 well plate polypropylene for compound dilution in DMSO • CHO Tie2/DHFR (transfected cells) • PBS−; PBS++, DMSO • MEM alpha Medium with Glutamax-I without Ribonucleosides and Deoxyribonucleosides (Gibco #32561-029) • with 10% FCS after dialysis! and 1% PenStrep • Lysis buffer: 1 Tablet “Complete” protease inhibitor • 1 cap Vanadate (1 mL>40 mg/mL; working solution 2 mM) • ad 50 mL with Duschl-Puffer • pH 7.6 • Anti-Tie2-antibody 1:425 in Coating Buffer pH 9.6 • Stock solution: 1.275 mg/mL>working.: 3 μg/mL • PBST: 2 bottles PBS (10×)+10 ml Tween, fill up with VE-water • RotiBlock 1:10 in VE-water • Anti-Phosphotyrosine HRP-Conjugated 1:10000 in 3% TopBlock • 3% TopBlock in PBST • BM Chemiluminescence ELISA Substrate (POD) • solution B 1:100 solution A • SF9 cell culture medium • Ang2-Fc in SF9 cell culture medium
• Dispense 5×10^4 cells/well/98 μL in 96 well tissue culture plate • Incubate at 37° C./5% CO2 • After 24 h add compounds according to desired concentrations • Add also to control and stimulated values without compounds 2 μL DMSO • And mix for a few min at room temperature • Add 100 μL Ang2-Fc to all wells except control, which receives insect medium • Incubate 20 min at 37° C. • Wash 3× with PBS++ • Add 100 μl Lysis buffer/well and shake a couple of min at room temperature • Store lysates at […] before utilizing for the ELISA
• Coat 96 well FluoroNunc Plate MaxiSorp Surface C with anti-Tie2 mAb 1:425 in Coating buffer pH 9.6; 100 μL/well overnight at 4° C. • Wash 2× with PBST • Block plates with 250 μL/well RotiBlock 1:10 in VE-water • Incubate for 2 h at room temperature or overnight at 4° C. shaking • Wash 2× in PBST • Add thawed lysates to wells and incubate overnight shaking at 4° C. • Wash 2× with PBST • Add 100 μL/well anti-Phosphotyrosine HRP-Conjugated 1:10000 in 3% TopBlock (3% TopBlock in PBST) and incubate overnight under shaking • Wash 6× with PBST • Add 100 μL/well BM Chemiluminescence ELISA Substrate (POD) solutions 1 und 2 (1:100) • Determine luminescence with the LumiCount. Assay 2: Tie-2-Kinase HTRF-Assay without Kinase Preactivation
Target sequence in this assay (Q02763 23-1124, species assumed): as the sequence (Q02763 23-1124, species assumed) above

IC50 [3] [µM] | IC50 [4] [µM] | SMILES | potency against at least 5 other kinase targets relative to Tie2 [1] [times] | activity as inhibitor of cellular Tie2 autophosphorylation [2]
 |  | Cc1ccc(F)c(NC(=O)Nc2ccc(-c3cccc4[nH]nc(N)c34)cc2)c1 [Abt-869] | > 10 | only modest activity
< 0.501 | < 0.501 | Cn1ncc2c(-c3ccc(NC(=O)Nc4ccc(CN5CCN(CC6CC6)CC5)c(C(F)(F)F)c4)cc3)cncc21 [Example 13.26, 1-[4-(4-Cyclopropylmethyl-piperazin-1-ylmethyl)-3-trifluoromethyl-phenyl]-3-[4-(1-methyl-1H-pyrazolo[3,4-c]pyridin-4-yl)-phenyl]-urea] |  | 
